The source of these data is patent publication US9376420B2 (YUHAN CORPORATION, priority 2012, dated 2016).

Structures are written as SMILES.

The target of the experiment is T1, human LXRβ (Homo sapiens, UniProt P55055).
T1 construct: expressed in transfected cells; host or cells: HEK293 cells (ATCC CRL-1573), transient transfection with pFA-hLXRβ/GAL4 and pUAS
T1 sequence (P55055 222-460 limits assumed): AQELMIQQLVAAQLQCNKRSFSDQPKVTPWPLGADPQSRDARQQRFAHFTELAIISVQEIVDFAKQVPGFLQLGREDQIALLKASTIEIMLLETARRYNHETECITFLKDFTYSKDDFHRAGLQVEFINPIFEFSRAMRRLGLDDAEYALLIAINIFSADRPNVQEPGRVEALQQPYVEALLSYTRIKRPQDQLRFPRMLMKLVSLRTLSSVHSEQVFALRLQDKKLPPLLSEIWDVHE
As to the kind of experiment: Assay for Transcriptional Activity of LXRβ (GAL4-hLXRβ LBD luciferase reporter, transient transfection). The experiment is classed as cell-based. The settings on record: HEK293 cells transfected with pFA-hLXRβ/GAL4 and pUAS, 24 hours; for Emax: fold value in comparison with the control (DMSO-treated group); for EC50: increase of transcriptional activity of LXRβ, average of three independent tests. The source says: The ligand-binding domain (LBD) cDNA of human LXRβ was inserted into an expression vector (pFA, Stratagene, USA) site adjacent to the yeast GAL4 transcription factor DNA binding domain to prepare an expression construct (pFA-hLXRβ/GAL4) (Willey et al., Genes & Development 9 1033-1045 (1995). The GAL4-responsive luciferase reporter plasmid, i.e., pUAS (Stratagene, USA), contained five copies of the GAL4 response element placed adjacent to the promoter and the luciferase reporter gene. The pFA-hLXRβ/GAL4 and pUAS were introduced into mammalian cells through transient transfection, followed by measuring the transcriptional activity of LXRβ.
HEK293 cells (human kidney cells, sATCC, CRL-1573) were incubated at a T-75 flask containing a DMEM supplemented with 10% fetal bovine serum (FBS) in a 37° C., until they reach about 70˜80% confluency. The culture media containing the cells was added to each well of a 96-well plate in a density of 5×10^4 cells per well. The pFA-hLXRβ/GAL4 and pUAS was transfected to the cells using a cationic-lipid transfection reagent (Lipofectamine™, Invitrogen), through culturing at 37° C. for 3 hours for transient transfection according to the manufacturer's instruction. The test compounds were dissolved in dimethyl sulfoxide (DMSO) in the concentrations of 50, 30, 10, 3, 1, 0.3, 0.1, 0.03, and 0.01 μM and then cells were treated with the prepared compound-containing solution (100 μl). The cells were incubated at 37° C. for 24 hours. After removal of the medium from each well, the lysis buffer (25 mM Tricine pH7.8, 2 mM DTT, 2 mM EGTA, 10% glycerol, 1% Triton X-100) was added with the amount of 20 μl per each well, and the plate was stirred at room temperature for 15 minutes. The luciferase reagent (prepared by adding 10 ml of the luciferase buffer (Promega) to 1 vial of the luciferase substrate (Promega)) was added to each well with the amount of 100 μl per well, followed by assaying with a luminometer according to the manufacturer's instruction.
The dose-response curve for calculating the EC50 values of the test compounds on the increase of transcriptional activity of LXRβ was prepared using the known LXR agonist (i.e., N-(2,2,2-trifluoro-ethyl)-N-[4-(2,2,2-trifluoro-1-hydroxy-1-trifluoromethyl-ethyl)-phenyl]-benzenesulfonamide) as a positive control and the vehicle (DMSO) as a negative control. The dose-response curve was produced from the 9-point curve having different concentrations at a 1/2 log unit. The EC50 value of a test compound, which is defined as a concentration for initiating the reaction corresponding to the half value between the Top value (i.e., the maximum value) and the Bottom value (baseline), was calculated according to the following equation. Y=Bottom+(Top-Bottom)/(1+10^((log EC50-X)*Hill Slope)).
In the above equation, Y is the observed value; X is the log concentration; Hill Slope is the slope of the curve; and Top and Bottom are the maximum value of test compound and the baseline value, respectively.
The following tables 1 and 2 show the EC50 values of the test compounds measured as in the above. In the tables 1 and 2, each EC50 value represents an average value obtained from three independent tests.
For orientation: Reporter assays use an easily measured gene product as a stand-in for the process of interest.

By EC50 is commonly meant the concentration giving half of the maximal effect. High values mean lower potency in that assay, low ones higher potency in that assay.

For the molecule `CC(C)(C)OC(=O)N1CC=C(c2ccc(C3CC(C(O)(C(F)(F)F)C(F)(F)F)=NN3c3ccccc3Cl)c(F)c2)CC1` (stereo not drawn) [Example 342, 1-(2-chloro-phenyl)-5-[2-fluoro-4-(1-BOC-1,2,3,6-tetrahydropyridin-4-yl)-phenyl]-3-[di-(trifluoromethyl)-hydroxy-methyl]-4,5-dihydro-1H-pyrazole], the Emax is on record as 21 fold and the EC50 was determined as 4070 nM.
Take `CS(=O)(=O)N1CC=C(c2ccc(C3CC(C(O)(C(F)(F)F)C(F)(F)F)=NN3c3ccc(F)cc3F)cc2)CC1` (stereo not drawn) [Example 400, 1-(2,4-difluoro-phenyl)-5-[4-(1-methanesulfonyl-1,2,3,6-tetrahydropyridin-4-yl)-phenyl]-3-[di-(trifluoromethyl)-hydroxy-methyl]-4,5-dihydro-1H-pyrazole]: the Emax came to 38 fold and the EC50 was 379 nM.
`COc1ccc(-c2cccc(C3CC(C(F)(F)C(F)(F)F)=NN3c3ccc(F)cc3F)c2)cn1` (stereo not drawn) [Example 56, 1-(2,4-difluoro-phenyl)-5-[3-(6-methoxy-pyridin-3-yl)-phenyl]-3-pentafluoroethyl-4,5-dihydro-1H-pyrazole]: the Emax was found to be 78 fold and the EC50 was 2220 nM.
Molecule `CSc1ccc(-c2ccc(F)c(C3CC(C(F)(F)C(F)(F)F)=NN3c3ccc(F)cc3F)c2)cn1` (stereo not drawn) [Example 140, 1-(2,4-difluoro-phenyl)-5-[6-fluoro-3-(6-methylsulfanyl-pyridin-3-yl)-phenyl]-3-pentafluoroethyl-4,5-dihydro-1H-pyrazole] gave an Emax of 143 fold and a 50% effective concentration (EC50) of 1770 nM.
On the same counts, the results for `CS(=O)(=O)c1ccc(-c2ccc(C3CC(C(O)(C(F)(F)F)C(F)(F)F)=NN3c3ccc(F)cc3F)cc2)cc1F` (stereo not drawn) [Example 387, 1-(2,4-difluoro-phenyl)-5-(3′-fluoro-4′-methanesulfonyl-biphenyl-4-yl)-3-[di-(trifluoromethyl)-hydroxy-methyl]-4,5-dihydro-1H-pyrazole] are 27 fold and 47 nM.
Molecule `O=S(=O)(C1CCCC1)N1CC=C(c2ccc(C3CC(C(O)(C(F)(F)F)C(F)(F)F)=NN3c3ccccc3Cl)cc2)CC1` (stereo not drawn) [Example 306, 1-(2-chloro-phenyl)-5-[4-(1-cyclopentanesulfonyl-1,2,3,6-tetrahydropyridin-4-yl)-phenyl]-3-[di-(trifluoromethyl)-hydroxy-methyl]-4,5-dihydro-1H-pyrazole] had an Emax of 59 fold and an EC50 of 1250 nM.
On the same counts, the results for `CS(=O)(=O)c1cccc(-c2ccc(C3CC(C(O)(C(F)(F)F)C(F)(F)F)=NN3c3ccc(F)cc3F)cc2)c1` (stereo not drawn) [Example 413, 1-(2,4-difluoro-phenyl)-5-[3′-methanesulfonyl-biphenyl-4-yl]-3-[di-(trifluoromethyl)-hydroxy-methyl]-4,5-dihydro-1H-pyrazole] are 49 fold and 156 nM.
In turn, `CS(=O)(=O)c1ccc(-c2cncc(C3CC(C(F)(F)C(F)(F)F)=NN3c3ccc(F)cc3F)c2)cc1` (stereo not drawn) [Example 162, 1-(2,4-difluoro-phenyl)-5-[3-(4-methanesulfonyl-phenyl)-pyridin-5-yl]-3-pentafluoroethyl-4,5-dihydro-1H-pyrazole] registered an Emax of 59 fold and an EC50 of 2930 nM.
On the same counts, the results for `OC(C1=NN(c2ccc(F)cc2F)C(c2ccc(-c3c(F)cc(-n4cnnn4)cc3F)cc2)C1)(C(F)(F)F)C(F)(F)F` (stereo not drawn) [Example 393, 1-(2,4-difluoro-phenyl)-5-{[2′,6′-difluoro-4′-(tetrazol-1-yl)-biphenyl]-4-yl}-3-[di-(trifluoromethyl)-hydroxy-methyl]-4,5-dihydro-1H-pyrazole] are 8 fold and 790 nM.
On the same counts, the results for `O=C(CC1CCCC1)N1CC=C(c2cccc(C3CC(C(O)(C(F)(F)F)C(F)(F)F)=NN3c3ccccc3Cl)c2)CC1` (stereo not drawn) [Example 232, 1-(2-chloro-phenyl)-5-{3-[1-(2-cyclopentyl-acetyl)-1,2,3,6-tetrahydropyridin-4-yl]-phenyl}-3-[di-(trifluoromethyl)-hydroxy-methyl]-4,5-dihydro-1H-pyrazole] are 77 fold and 70 nM.
Consider `CSc1ccc(-c2cccc(C3CC(C(F)(F)C(F)(F)F)=NN3c3ccc(F)cc3F)c2)cn1` (stereo not drawn) [Example 77, 1-(2,4-difluoro-phenyl)-5-[3-(2-methylsulfanyl-pyridin-5-yl)-phenyl]-3-pentafluoroethyl-4,5-dihydro-1H-pyrazole], for which the Emax was 57 fold and a half-maximal response (EC50) required 7180 nM.
The molecule `CSc1cccc(-c2ccc(C3CC(C(F)(F)C(F)(F)F)=NN3Cc3ccccc3Cl)cc2)c1` (stereo not drawn) [Example 15, 1-(2-chloro-benzyl)-5-(3′-methylsulfanyl-biphenyl-4-yl)-3-pentafluoroethyl-4,5-dihydro-1H-pyrazole] came in with an Emax of 23 fold and an EC50 of 14800 nM.
`COc1ncccc1-c1cccc(C2CC(C(F)(F)C(F)(F)F)=NN2c2ccc(F)cc2F)c1` (stereo not drawn) [Example 75, 1-(2,4-difluoro-phenyl)-5-(3-(2-methoxy-pyridin-3-yl)-phenyl)-3-pentafluoroethyl-4,5-dihydro-1H-pyrazole] gave an Emax of 63 fold and a concentration for a half-maximal effect (EC50) of 1120 nM.
With `Nc1cccc(-c2ccc(C3CC(C(O)(C(F)(F)F)C(F)(F)F)=NN3c3ccccc3Cl)cc2)c1` (stereo not drawn) [Example 253, 5-(3′-amino-biphenyl-4-yl)-1-(2-chloro-phenyl)-3-[di-(trifluoromethyl)-hydroxy-methyl]-4,5-dihydro-1H-pyrazole], the Emax was found to be 55 fold and the EC50 was found to be 1070 nM.
In the same order, the values of `CS(=O)(=O)N1CCCN(c2ccc(C3CC(C(O)(C(F)(F)F)C(F)(F)F)=NN3c3ccc(F)cc3F)cc2)CC1` (stereo not drawn) [Example 410, 1-(2,4-difluoro-phenyl)-5-[4-(4-methanesulfonyl-homopiperazin-1-yl)-phenyl]-3-[di-(trifluoromethyl)-hydroxy-methyl]-4,5-dihydro-1H-pyrazole] are 74 fold and 154 nM.
In the same order, the values of `CN(CCO)S(=O)(=O)c1cccc(-c2ccc(C3CC(C(O)(C(F)(F)F)C(F)(F)F)=NN3c3ccccc3Cl)cc2)c1` (stereo not drawn) [Example 283, 1-(2-chloro-phenyl)-5-{3′-[(2-hydroxy-ethyl)-methyl-sulfamoyl]-biphenyl-4-yl}-3-[di-(trifluoromethyl)-hydroxy-methyl]-4,5-dihydro-1H-pyrazole] are 51 fold and 270 nM.
In the same order, the values of `COc1ncc(-c2ccc(C3CC(C(O)(C(F)(F)F)C(F)(F)F)=NN3c3ccccc3Cl)cc2)cc1C=O` (stereo not drawn) [Example 274, 1-(2-chloro-phenyl)-5-[4-(5-formyl-6-methoxy-pyridin-3-yl)-phenyl]-3-[di-(trifluoromethyl)-hydroxy-methyl]-4,5-dihydro-1H-pyrazole] are 55 fold and 1010 nM.
Take `OC(C1=NN(c2ccc(F)cc2F)C(c2ccc(-c3cncnc3)cc2)C1)(C(F)(F)F)C(F)(F)F` (stereo not drawn) [Example 372, 1-(2,4-difluoro-phenyl)-5-(4-pyrimidin-5-yl-phenyl)-3-[di-(trifluoromethyl)-hydroxy-methyl]-4,5-dihydro-1H-pyrazole]: the Emax is 42 fold and a half-maximal effect (EC50) was put at 412 nM.
